SMILES strings stand for the structures.

Test system in one test: not listed separately
Kind of test: Cytotoxicity against human foreskin fibroblasts after 96 hrs by MTT assay. It counts as cell-based. Particulars: Fibroblast.
`CCCCNc1nc(NN)nc(N(C)O)n1`: half-maximal inhibition (IC50) was put at 300 µM.

As for `O=C(O)c1ccc(-n2nc(-c3ccccc3O)nc2-c2ccccc2O)cc1` [DEFERASIROX], the midpoint of inhibition, the IC50, lay at 100 µM.

In the case of `CN(O)c1nc(N(C)O)nc(N2CCOCC2)n1`, half-maximal inhibition (IC50) required 200 µM.

Turning to `CN(O)c1nc(NN)nc(N2CCOCC2)n1`, the IC50 stood at 400 µM.

Turning to `ONc1nc(NO)nc(N2CCOCC2)n1`, the IC50 was 350 µM.

The compound `CN(O)c1nc(N2CCOCC2)nc(N2CCC=N2)n1` gave an IC50 of 250 µM.

With `CON(C)c1nc(N(C)O)nc(N2CCOCC2)n1`, the IC50 is 250 µM.

Consider `CCOC(=O)CN(C)c1nc(N(C)O)nc(N(C)O)n1`, for which the half-inhibitory concentration (IC50) was found to be 200 µM.

On to `CCCCNc1nc(N(C)O)nc(N(C)O)n1`, for which half-maximal inhibition (IC50) required 16.5 µM.

Another test has as its system MIA PaCa-2 (human). Kind of test: Cytotoxicity against human MIAPaCa2 cells after 96 hrs by MTT assay. Particulars: MIA PaCa-2, 96 h.
`CCCCNc1nc(NN)nc(N(C)O)n1`: the IC50 worked out at 50 µM.

Compound `O=C(O)c1ccc(-n2nc(-c3ccccc3O)nc2-c2ccccc2O)cc1` [DEFERASIROX] had an IC50 of 4 µM.

Compound `CN(O)c1nc(N(C)O)nc(N2CCOCC2)n1` had an IC50 of 1 µM.

For `CN(O)c1nc(NN)nc(N2CCOCC2)n1`, half-maximal inhibition (IC50) was put at 150 µM.

Consider `ONc1nc(NO)nc(N2CCOCC2)n1`, for which the IC50 came out at 40 µM.

In the case of `CN(O)c1nc(N2CCOCC2)nc(N2CCC=N2)n1`, it took 50 µM to reach half-maximal inhibition (IC50).

`CON(C)c1nc(N(C)O)nc(N2CCOCC2)n1`: half-maximal inhibition (IC50) was put at 40 µM.

On to `CCOC(=O)CN(C)c1nc(N(C)O)nc(N(C)O)n1`, for which the IC50 was found to be 4 µM.

In turn, `CCCCNc1nc(N(C)O)nc(N(C)O)n1` gave an IC50 of 0.8 µM.

The test system of the next test is MDA-MB-231 (human). Kind of test: Cytotoxicity against human MDA-MB-231 cells after 96 hrs by MTT assay. Particulars: MDA-MB-231, 96 h.
As for `CCCCNc1nc(NN)nc(N(C)O)n1`, the IC50 was determined as 75 µM.

`O=C(O)c1ccc(-n2nc(-c3ccccc3O)nc2-c2ccccc2O)cc1` [DEFERASIROX] gave an IC50 of 10 µM.

Compound `CN(O)c1nc(N(C)O)nc(N2CCOCC2)n1` gave an IC50 of 9 µM.

Take `CN(O)c1nc(NN)nc(N2CCOCC2)n1`: the IC50 was 150 µM.

Compound `ONc1nc(NO)nc(N2CCOCC2)n1` gave an IC50 of 250 µM.

Consider `CN(O)c1nc(N2CCOCC2)nc(N2CCC=N2)n1`, for which the IC50 was 75 µM.

`CON(C)c1nc(N(C)O)nc(N2CCOCC2)n1` came in with an IC50 of 150 µM.

`CCOC(=O)CN(C)c1nc(N(C)O)nc(N(C)O)n1` displayed an IC50 of 20 µM.

In the case of `CCCCNc1nc(N(C)O)nc(N(C)O)n1`, the IC50 came out at 4 µM.

Source of the values: ChEMBL document CHEMBL1153235, “Synthesis and antiproliferating activity of iron chelators of hydroxyamino-1,3,5-triazine family” (Bioorg Med Chem Lett, 2010).
